The record followed here is a melting point compilation (Tetko et al.; mined from patent text by program, amines drawn as free bases though some values may be those of a salt).

Each structure is given as a SMILES string.

As usually defined, the melting point is the temperature, or range, at which the solid turns liquid. With `CCCc1nc2c(N)nc3ccccc3c2n1CCCCN(OC)C(=O)Nc1ccccc1`, the melting point was 164 to 166 °C.
As for `O=c1oc2c(c(=O)n1C1CCCCC1)CCC2`, the figure is 72 to 74 °C; as for `COC1=C(OC)C(=O)C2=C(CC(CCCCCCCCN3C(=O)c4ccccc4C3=O)C2)C1=O`, 91 to 93 °C; as for `O=C(NCC1(O)CCCCCC1)c1cc(-c2cccnc2C(=O)O)ccc1Cl`, 95 to 100 °C.
For `CC(=O)Nc1c(C(O)(C(F)(F)F)C(F)(F)F)ccc2ccccc12`, the melting point is 155 to 156 °C.
For `CC1(C)NC(=O)C(C)(C)N1O`, the melting point was 240 to 245 °C.
As for `COc1ccc(OC)c2c1C[C@@H](O)[C@H](NC(C)C)C2` (relative stereo), the figure is 144 to 145 °C.
The compound `CCCCNS(=O)(=O)CC(=O)[C@@H]1OC(C)(C)N(C(=O)OC(C)(C)C)[C@H]1CC1CCCCC1` yielded a melting point of 70 to 73 °C.
`COc1cc(OC)c(C(=O)C=Cc2ccc3c(c2)OCO3)c(OP(=O)(O)O)c1` displayed a melting point of 79 to 80 °C.
Consider `O=C(c1cccnc1)N1CCC(c2nc(-c3cnc(-c4ccccc4)nc3)c[nH]2)CC1`, for which the melting point turned out to be 234 °C.
The figure for `CC(C)NC(=O)Nc1cc(-c2c(-c3ccc(F)cc3)nc3cccnn23)ccn1` is 222 to 223 °C; for `CN1CC(=Cc2c(F)c(F)c(N=[N+]=[N-])c(F)c2F)C(=O)C(=Cc2c(F)c(F)c(N=[N+]=[N-])c(F)c2F)C1` it is 153 °C.
Consider `NC(=O)c1[nH]c2ccccc2c1Sc1ccccc1`, for which the melting point lay within 197 to 198 °C.
As for `CCCCc1ncc(/C=C2\C(=O)N(CC(=O)OCC)c3c(OC)cccc32)n1Cc1ccc(C(=O)OC)cc1`, the figure is 157 to 158 °C; as for `COCCOc1cc([N+](=O)[O-])c2[nH]c(C(=O)O)cc2c1`, 192 to 193 °C; as for `COc1ccc2cc([C@@H]3CCN(C[C@H](O)COc4cccc5[nH]ccc45)[C@@H](C)C3)sc2c1`, 179 to 182 °C.
The figure for `CC1(C)OC[C@@H]([C@@H]2CC(=O)N2)O1` is 91 to 92 °C; for `CCCN1CCc2c(cccc2NC(=O)c2ccc(OC)cc2)C1` it is 162 to 164 °C.
`Cc1oc(C)c(C(=O)Nc2ccc(Cl)c(C(=O)OC(C)C)c2)c1C` displayed a melting point of 83 to 85 °C.
The figure for `O=C(O)C1=Cc2cc(C#Cc3ccccc3)ccc2NC1C(F)(F)F` (stereo not given) is 218 to 219 °C; for `O=C(O)CNC(=O)Nc1cccc([N+](=O)[O-])c1` it is 217 to 218 °C; for `CN1C(=O)N(c2nnc(C(C)(C)C)s2)C(=O)C1O` (stereo not given) it is 163 to 164 °C.
As for `COc1cccc(-c2nc(N)c(C#N)nc2-c2ccc(=O)n(C(C)C)c2)c1`, the figure is 192 °C; as for `CCOC(=O)COc1ccc(N(C)c2cc3ccc(Cl)cc3c(Cl)n2)cc1`, 99 °C.
Take `CC(=O)C(=Cc1ccc(C#N)cc1)C(=O)C1CC1`: the melting point lay within 83 to 85 °C.
The figure for `CCOC(=O)c1ccc(C#CC(O)c2cc(C(C)(C)C)cc(C(C)(C)C)c2O)cc1` (stereo not given) is 142 to 144 °C; for `O=C1c2ccccc2S(=O)(=O)N1CBr` it is 155 to 157 °C; for `CCOC(=O)c1ccc(CCN2CCN(Cc3ccc(OC)cc3)CC2)cc1` it is 75 to 76 °C.
The figure for `COC(=O)c1ccc2[nH]c(C(=O)OCc3ccccc3)cc2c1` is 128 to 129 °C; for `CC1CC2Oc3ccc(Cl)cc3C(=O)N2O1` (stereo not given) it is 147 to 151 °C; for `COC(=O)C1OC(c2cc(-c3ncc(C(F)(F)F)cc3Cl)ccc2Cl)OC1C(=O)OC` (stereo not given) it is 48 to 53 °C.
The compound `C#CCN1C(=O)COc2cc(F)c([N+](=O)[O-])cc21` yielded a melting point of 105 to 107 °C.
As for `O=C(O)CN(C(=O)Cc1ccc(Cl)c(Cl)c1)[C@H](CN1CC[C@H](O)C1)c1ccccc1`, the melting point lay within 162 to 164 °C.
With `CCCC[C@H](NC(=O)[C@H](C)Nc1nc2ccccc2s1)C(=O)OC`, the melting point fell in the range of 99 to 120 °C.
The figure for `CC(C)c1ccn2nc(S(=O)(=O)Cl)nc2n1` is 60 to 62 °C.
Compound `CCOc1ccnc(N2CCN(C(=O)c3ccccc3C#N)CC2)n1` came in with a melting point of 151 to 154 °C.
Compound `Cc1cc(Oc2ccc(N)cc2C(F)(F)F)n[nH]1` displayed a melting point of 143 to 145 °C.
The figure for `COc1ccc(Nc2nc(OCC3CCCCC3)c3[nH]cnc3n2)cc1` is 189 to 192 °C; for `CON(C(=O)Cc1nc2ccc(Cl)cc2o1)c1ccccc1` it is 139 °C.
Turning to `N#CCCNC(=O)c1cccc(-c2cccn3cc(Cc4cccc(C(F)(F)F)c4)nc23)c1`, the melting point was in the range of 126 to 127 °C.
As for `CC(C)(C)C(NC(=O)Cc1ccc2cccnc2c1)NC(=NC#N)Nc1cccc2ncccc12` (stereo not given), the figure is 147 to 148 °C.
The figure for `CCN(CC)c1ccc(NC(=O)c2ccc(C)c(Nc3nccc(-c4cccnc4)n3)c2)cc1C(F)(F)F` is 128 to 131 °C; for `CC(C)(C)C(NC(=O)c1ccc(I)cc1)NS(=O)(=O)Nc1cccnc1` (stereo not given) it is 177 to 178 °C.
As for `CN1C(=O)CCC1(O)c1cccc(C(F)(F)F)c1` (stereo not given), the melting point lay within 137 to 139 °C.
As to `Cc1ccc(-c2csc(NC(=O)c3nnn[nH]3)n2)cc1`, the melting point is 250 to 253 °C.
`CCOC(=O)COc1c(F)cc(S(=O)(=O)CCNS(=O)(=O)c2ccc(Cl)cc2)cc1F` gave a melting point of 166 to 167 °C.
As for `CC(C)(C)n1nc(-c2ccoc2)c(C(N)=O)c1N`, the figure is 177 °C; as for `COc1ccccc1Sc1c(NS(=O)(=O)c2ccc(C(C)(C)C)cc2)nc(CO)nc1OC`, 152 °C.
Consider `NCc1cc(=O)[nH]c(=O)[nH]1`, for which the melting point was in the range of 295 to 297 °C.
As for `CCn1c(=O)c2nc(C(=O)O)cn2c2ccccc21`, the figure is 250 to 252 °C; as for `COC(=O)C1=NC2=COc3ccc(C)cc3N2C1C(=O)O` (stereo not given), 178 to 179 °C; as for `C[C@@H]1S[C@@H](C(=O)Nc2ccc(CN3CCOCC3)cc2)Cc2cc3c(cc2C1=O)OCO3`, 172 to 174 °C.
The figure for `Cc1cc(C)c(S(=O)(=O)NCCS)c(C)c1` is 73 °C; for `CS(=O)(=O)Nc1ccc2c(c1)S(=O)(=O)NC(C1CCCCC1)N2` (stereo not given) it is 255 to 258 °C.
As for `CCCNC(=O)Nc1ccccc1C(=O)OC`, the figure is 102 °C; as for `Nc1n[nH]c(Nc2ccccc2)n1`, 158 to 159 °C.
In turn, `CC(=O)OCC1OC(OCCBr)C(OC(C)=O)C(OC(C)=O)C1OC(C)=O` (stereo not given) returned a melting point of 116 to 117 °C.
As to `CC(=O)NNC(=N)CCCCn1cnc(NC(N)=NCC(F)(F)F)n1`, the melting point fell in the range of 157 to 159 °C.
The figure for `CC(C)(C)[S@@](=O)NC1(c2ccc3c(C(F)(F)F)c(O[C@H]4CC[C@H](C(C)(C)C)CC4)ccc3c2)COC1` is 86.8 to 90 °C; for `CS(=O)(=O)c1ccc(C(=O)O)c(Cl)c1C1=NOCC1` it is 145 to 146 °C.
The figure for `COc1ccc(-c2c(-c3ccccc3)nn3ccccc23)nn1` is 203 to 205 °C; for `C=C(CO)COC(=O)NCCCCCCCCCCCCCCC` it is 60 to 62 °C; for `O=C(O)Cn1cc(C2(O)CCCC2)nn1` it is 124 to 126 °C.
As to `CCN(Cc1ccc(OC(C)(C)C(=O)O)c(C)c1)c1cc(-c2ccc(Cl)cc2)nn1C`, the melting point is 208 °C.
The compound `COc1cc2cc(-c3ccncc3)oc2cc1OC` came in with a melting point of 227 to 229 °C.
The figure for `O=C1OC(Cc2ccccc2)(Cc2ccccc2)C2CNCCN12` (stereo not given) is 132 to 133 °C; for `COc1cc2c(cc1C(C)=O)sc1ccccc12` it is 163 to 165 °C.
The figure for `CCOC(=O)c1cc(C=O)c2ccccn2c1=O` is 179 to 181 °C; for `COc1ccc2c(c1)C(=O)C(Cc1cccc(N)c1)CC2` (stereo not given) it is 159 to 161 °C; for `CCc1cn(C2OC(CNC(=O)C(C)Oc3c(Cl)cc(Cl)c(OC)c3Cl)C(OC(=O)C(NC(=O)OC(C)(C)C)C(C)C)C2F)c(=O)[nH]c1=O` (stereo not given) it is 147 to 149 °C.
As for `NS(=O)(=O)c1ccn2c1C(=O)OCC2`, the figure is 204 to 206 °C.
Take `NNC(=O)c1ccc2ncccc2c1`: the melting point fell in the range of 193 to 194 °C.
The figure for `CC(=O)Nc1nc(N)nc(C2CCC(c3ccccc3)CC2)n1` (stereo not given) is greater than 260 °C; for `CC(=O)OCS(=O)(=O)C1=CCC2C3CCC4=CC(=O)C=CC4(C)C3(F)C(O)CC12C` (stereo not given) it is 186 to 187 °C; for `Cc1c2ccccc2c(O[Si](C)(C)C(C)(C)C)c2occ(CCC=O)c12` it is 152 to 154 °C.
The figure for `CC(C)(C)OC(=O)N[C@@H](Cc1ccccc1)c1nc2c(C(F)(F)F)cccc2c(=O)o1` is 145 °C; for `Nc1ccc(C2=NNC(c3ccccn3)=NN2)nc1` it is 158 to 160 °C; for `CC1NC(C#N)=C(C#N)NC1=O` (stereo not given) it is 243 to 245 °C.
As for `CCCCC(CC)COc1ccc2c(-c3ccc(C=O)cc3)c3cc(OCC(CC)CCCC)ccc3c(-c3ccc(C=O)cc3)c2c1` (stereo not given), the figure is 125 to 127 °C.
In turn, `Fc1ccc(-c2ncnc(C(F)F)c2Cl)c(F)c1` gave a melting point of 69 to 71 °C.
On to `COC(=O)C#CC1CCC2C3CCC4CC(O)CCC4(C)C3CCC12C` (stereo not given), for which the melting point lay in the range of 135 to 137 °C.
Compound `Cc1c(CO)cccc1NC(=O)CN1C[C@@H](C)N(c2ncnc3sccc23)[C@@H](C)C1` returned a melting point of 203 to 204 °C.
The figure for `Cc1cccc(OC2=NS(=O)(=O)N=C(N)N2C(C)C)c1` is 56 to 58 °C.
Regarding `Cc1ccc2c(n1)NC(C)C(=O)N2` (racemic), the melting point lay within 203 to 205 °C.
On to `O=C(CCC(=O)Oc1ccc(C(=O)OCc2ccccc2)cc1)Oc1ccc(C(=O)OCc2ccccc2)cc1`, for which the melting point is 106 to 107 °C.
As to `CC1CCc2c(N3CCOCC3)c(F)cc3c(=O)c(C(=O)O)cn1c23` (stereo not given), the melting point was 279 to 280 °C.
As for `CCOC(=O)c1cnn(-c2c(Cl)cc(C(F)(F)F)cc2Cl)c1Br`, the melting point was 80 to 82 °C.
Consider `O=C1NN=C(c2ccc(Cl)cc2)C2CC12` (stereo not given), for which the melting point lay within 199 to 200 °C.
The figure for `CCCCOc1ccc(S(=O)(=O)NCCCCOc2ccc(-n3ccnc3)cc2)cc1` is 103 to 105 °C; for `Brc1c(NC2=NCCN2)ccc2c1NCCN2` it is 218 to 220 °C.
